The source of these data is patent US20260257998A1, “ERR MODULATORS” (University of Health Sciences and Pharmacy in St. Louis, priority 2023, published 2026).

For one experiment, the target named is T1, ERRγ (Homo sapiens, UniProt P62508).
T1 construct: expressed in transfected cells; host or cells: HEK293
T1 sequence (P62508 1-458): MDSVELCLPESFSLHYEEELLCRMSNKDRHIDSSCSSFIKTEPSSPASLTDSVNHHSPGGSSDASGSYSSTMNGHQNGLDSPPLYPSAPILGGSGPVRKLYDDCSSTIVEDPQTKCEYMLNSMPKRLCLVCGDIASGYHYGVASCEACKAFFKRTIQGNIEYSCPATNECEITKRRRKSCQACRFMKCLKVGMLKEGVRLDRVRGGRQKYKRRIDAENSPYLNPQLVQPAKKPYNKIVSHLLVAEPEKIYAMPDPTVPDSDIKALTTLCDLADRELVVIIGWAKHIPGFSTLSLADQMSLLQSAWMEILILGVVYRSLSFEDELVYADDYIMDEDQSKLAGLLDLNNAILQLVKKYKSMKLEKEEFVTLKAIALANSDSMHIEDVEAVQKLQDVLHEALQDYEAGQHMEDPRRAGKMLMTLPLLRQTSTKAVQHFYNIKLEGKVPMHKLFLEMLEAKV
The experiment is described as follows: ERRE luciferase reporter assay in HEK293 cells transfected with pcDNA3.1 ERRγ. The format is cell-based. Also noted: key to EC50 (ERRγ): ***<1 μM; **1-5 μM; *>5 μM; i.a. (inactive). The conditions noted are these: 24 hours treatment, luciferase activity. On the procedure:
(§1) HEK293 cells were maintained in Dulbecco's modified Eagles medium (DMEM) supplemented with 10% fetal bovine serum at 37° C. under 5% CO2. […] Cells were transfected with ERRE reporter construct and pcDNA3.1 ERRα or ERRγ. Twenty-four-hours post-transfection, the cells were treated with vehicle or compound (various concentrations) for 24 hours (4 wells per dose). Luciferase activity was measured using the One-Glo Tox luciferase reporter assay system (Promega) and […] were calculated using GraphPad Prism software.
For orientation: A reporter such as luciferase makes a cellular process visible.

The target in a further experiment is T2, ERRα (Homo sapiens, UniProt P11474).
T2 construct: expressed in transfected cells; host or cells: HEK293
T2 sequence (P11474 1-423): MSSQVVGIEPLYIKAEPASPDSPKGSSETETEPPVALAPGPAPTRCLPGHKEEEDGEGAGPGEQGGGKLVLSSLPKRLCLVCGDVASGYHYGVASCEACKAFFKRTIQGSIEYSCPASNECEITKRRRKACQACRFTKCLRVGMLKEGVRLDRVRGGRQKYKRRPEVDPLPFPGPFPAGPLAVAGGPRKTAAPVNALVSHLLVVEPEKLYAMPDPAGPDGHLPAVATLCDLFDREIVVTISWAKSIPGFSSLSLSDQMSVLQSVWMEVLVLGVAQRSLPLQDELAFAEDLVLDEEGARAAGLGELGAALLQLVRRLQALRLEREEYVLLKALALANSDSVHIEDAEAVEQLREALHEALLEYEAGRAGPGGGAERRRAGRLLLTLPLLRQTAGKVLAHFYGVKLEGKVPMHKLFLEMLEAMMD
The experiment is described as follows: ERRE luciferase reporter assay in HEK293 cells transfected with pcDNA3.1 ERRα. It counts as cell-based. The conditions noted are these: 24 hours treatment, luciferase activity. More on the design: key to EC50 (ERRα): ***<1 μM; **1-5 μM; *>5 μM; i.a. (inactive). The method, then:
as §1

pEC50: −log10 of the molar value. A value given as a limit tells only on which side of the number the result lay.

For `FC(F)(F)c1ccc(C2=NNC(c3ccccc3)C2)cc1` (stereo not drawn) [Entry 75, 5-phenyl-3-(4-(trifluoromethyl)phenyl)-4,5-dihydro-1H-pyrazole], the negative-log EC50 (pEC50) at ERRγ and at ERRα was 5.30 to 6.00 in each case.
As to `Brc1cccc(C2=NNC(c3ccc4ccccc4c3)C2)c1` (stereo not drawn) [Entry 86, 3-(3-bromophenyl)-5-(naphthalen-2-yl)-4,5-dihydro-1H-pyrazole], the pEC50 at ERRγ and on ERRα was below 5.30 each time.
Take `Oc1cccc(C2CC(c3cccc(Br)c3)=NN2)c1` (stereo not drawn) [Entry 97, 3-(3-(3-bromophenyl)-4,5-dihydro-1H-pyrazol-5-yl)phenol]: the pEC50 on ERRγ and on ERRα was 5.30 to 6.00 in each case.
For `Oc1cccc(C2CC(c3cc(C(F)(F)F)cc(C(F)(F)F)c3)=NN2)c1` (stereo not drawn) [Entry 5, 3-(3-(3,5-bis(trifluoromethyl)phenyl)-4,5-dihydro-1H-pyrazol-5-yl)phenol], the “EC50 (ERRγ)” value on ERRγ is “i.a”. Besides, the “EC50 (ERRα)” value on ERRα was “i.a”.
`CC(C)c1ccc(O)c(C2CC(c3ccc(F)cc3)=NN2)c1` (stereo not drawn) [Entry 63, 2-(3-(4-fluorophenyl)-4,5-dihydro-1H-pyrazol-5-yl)-4-isopropylphenol]: on ERRγ, the “EC50 (ERRγ)” value is reported as “i.a”. The “EC50 (ERRα)” value at ERRα was “i.a”.
As to `Oc1ccccc1C1CC(c2ccccc2C(F)(F)F)=NN1` (stereo not drawn) [Entry 103, 2-(3-(2-(trifluoromethyl)phenyl)-4,5-dihydro-1H-pyrazol-5-yl)phenol], on ERRγ, the “EC50 (ERRγ)” value is recorded as “i.a”. On ERRα, the “EC50 (ERRα)” value is “i.a”.
With `Oc1ccc(C2CC(c3ccc(Cl)cc3)=NN2)cc1` (stereo not drawn) [Entry 7, 4-(3-(4-Chlorophenyl)-4,5-dihydro-1H-pyrazol-5-yl)phenol], the pEC50 on ERRγ and at ERRα was below 5.30 throughout.
With `Oc1cc(Br)ccc1C1CC(c2ccc(C(F)(F)F)cc2)=NN1` (stereo not drawn) [Entry 119, 5-bromo-2-(3-(4-(trifluoromethyl)phenyl)-4,5-dihydro-1H-pyrazol-5-yl)phenol], on ERRγ, the “EC50 (ERRγ)” value was “i.a”. Also, the “EC50 (ERRα)” value on ERRα is “i.a”.
As for `Oc1ccc2cc(C3CC(c4ccc(Cl)cc4)=NN3)ccc2c1` (stereo not drawn) [Entry 98, 6-(3-(4-chlorophenyl)-4,5-dihydro-1H-pyrazol-5-yl)naphthalen-2-ol], on ERRγ, the “EC50 (ERRγ)” value is “i.a”. Further, at ERRα, the “EC50 (ERRα)” value is on record as “i.a”.
As for `Oc1cccc(C2CC(c3ccc(Cl)cc3)=NN2)c1` (stereo not drawn) [Entry 10, 3-(3-(4-Chlorophenyl)-4,5-dihydro-1H-pyrazol-5-yl)phenol], the pEC50 (commonly −log10 of the EC50, conventionally taken in molar units) at ERRγ was above 6.00; on ERRα, 5.30 to 6.00.
`Oc1c(F)cccc1C1CC(c2ccc(Br)cc2)=NN1` (stereo not drawn) [Entry 32, 2-(3-(4-Bromophenyl)-4,5-dihydro-1H-pyrazol-5-yl)-6-fluorophenol]: on ERRγ, the “EC50 (ERRγ)” value was “i.a”. In addition, the “EC50 (ERRα)” value on ERRα is given as “i.a”.
Take `Oc1ccccc1C1CC(c2cccc(Cl)c2)=NN1` (stereo not drawn) [Entry 142, 2-(3-(3-chlorophenyl)-4,5-dihydro-1H-pyrazol-5-yl)phenol]: the pEC50 on ERRγ and at ERRα was 5.30 to 6.00 each time.
Consider `Oc1ccccc1C1CC(c2ccc(Br)cc2)=NN1` (stereo not drawn) [Entry 24, 2-(3-(4-Bromophenyl)-4,5-dihydro-1H-pyrazol-5-yl)phenol], for which the negative-log EC50 (pEC50) on ERRγ and at ERRα was above 6.00 in each case.
As to `Oc1ccccc1C1CC(c2ccc(C(F)(F)F)cc2)=NN1` (stereo not drawn) [Entry 40, 2-(3-(4-(Trifluoromethyl)phenyl)-4,5-dihydro-1H-pyrazol-5-yl)phenol], the pEC50 on ERRγ is 5.30 to 6.00; at ERRα it was above 6.00.
With `Oc1cccc(C2=NNC(c3cccc(O)c3)C2)c1` (stereo not drawn) [Entry 3, 3,3′-(4,5-dihydro-1H-pyrazole-3,5-diyl)diphenol], the pEC50 at ERRγ and on ERRα was 5.30 to 6.00 throughout.
With `FC(F)(F)c1cc(C2=NNC(c3ccc4ccccc4c3)C2)cc(C(F)(F)F)c1` (stereo not drawn) [Entry 20, 3-(3,5-bis(trifluoromethyl)phenyl)-5-(naphthalen-2-yl)-4,5-dihydro-1H-pyrazole], at ERRγ, the “EC50 (ERRγ)” value is given as “i.a”. Moreover, the “EC50 (ERRα)” value on ERRα is given as “i.a”.
`Oc1ccccc1C1CC(c2ccccc2F)=NN1` (stereo not drawn) [Entry 54, 2-(3-(2-Fluorophenyl)-4,5-dihydro-1H-pyrazol-5-yl)phenol]: the negative logarithm of the EC50 (pEC50) at ERRγ is below 5.30; at ERRα, 5.30 to 6.00.
On ERRγ, `Oc1ccccc1C1=NNC(c2ccc3ccccc3c2)C1` (stereo not drawn) [Entry 21, 2-(5-(Naphthalen-2-yl)-4,5-dihydro-1H-pyrazol-3-yl)phenol] gave a pEC50 above 6.00. Besides, on ERRα, the “EC50 (ERRα)” value is “i.a”.
For `Oc1ccc(C2CC(c3ccc(C(F)(F)F)cc3)=NN2)cc1Cl` (stereo not drawn) [Entry 71, 2-chloro-4-(3-(4-(trifluoromethyl)phenyl)-4,5-dihydro-1H-pyrazol-5-yl)phenol], the “EC50 (ERRγ)” value at ERRγ is recorded as “i.a”. In addition, at ERRα, the “EC50 (ERRα)” value is on record as “i.a”.
For `Oc1cccc(C2CC(c3ccc(C(F)(F)F)cc3)=NN2)c1` (stereo not drawn) [Entry 74, 3-(3-(4-(trifluoromethyl)phenyl)-4,5-dihydro-1H-pyrazol-5-yl)phenol], the pEC50 at ERRγ and at ERRα was 5.30 to 6.00 in each case.
`Oc1ccccc1C1=NNC(c2ccccc2O)C1` (stereo not drawn) [Entry 30, 2,2′-(4,5-Dihydro-1H-pyrazole-3,5-diyl)diphenol]: the pEC50 at ERRγ and at ERRα was below 5.30 throughout.
Consider `COc1ccc(C2=NNC(c3ccccc3O)C2)cc1` (stereo not drawn) [Entry 42, 2-(3-(4-Methoxyphenyl)-4,5-dihydro-1H-pyrazol-5-yl)phenol], for which the pEC50 at ERRγ and on ERRα was above 6.00 throughout.
For `Oc1ccc2cc(C3CC(c4ccccc4F)=NN3)ccc2c1` (stereo not drawn) [Entry 107, 6-(3-(2-fluorophenyl)-4,5-dihydro-1H-pyrazol-5-yl)naphthalen-2-ol], the pEC50 on ERRγ and at ERRα was 5.30 to 6.00 throughout.
Consider `COc1ccc(C2=NNC(c3ccc(C)cc3O)C2)cc1` (stereo not drawn) [Entry 59, 2-(3-(4-methoxyphenyl)-4,5-dihydro-1H-pyrazol-5-yl)-5-methylphenol], for which the pEC50 on ERRγ and on ERRα was below 5.30 in each case.
In the case of `Oc1ccc(C2CC(c3ccc(Br)cc3)=NN2)cc1` (stereo not drawn) [Entry 80, 4-(3-(4-bromophenyl)-4,5-dihydro-1H-pyrazol-5-yl)phenol], the pEC50 on ERRγ is 5.30 to 6.00; on ERRα, above 6.00.
Consider `COc1ccc(C2=NNC(c3cc(Br)cc(Br)c3O)C2)cc1` (stereo not drawn) [Entry 117, 2,4-dibromo-6-(3-(4-methoxyphenyl)-4,5-dihydro-1H-pyrazol-5-yl)phenol], for which the “EC50 (ERRγ)” value on ERRγ is reported as “i.a”. The “EC50 (ERRα)” value on ERRα was “i.a”.
As for `Oc1ccccc1C1=NNC(c2ccc(Br)cc2O)C1` (stereo not drawn) [Entry 120, 5-bromo-2-(3-(2-hydroxyphenyl)-4,5-dihydro-1H-pyrazol-5-yl)phenol], the pEC50 at ERRγ and on ERRα was below 5.30 in each case.
Take `Cc1cc(C2CC(c3ccc(C(F)(F)F)cc3)=NN2)cc(C)c1O` (stereo not drawn) [Entry 70, 2,6-dimethyl-4-(3-(4-(trifluoromethyl)phenyl)-4,5-dihydro-1H-pyrazol-5-yl)phenol]: the “EC50 (ERRγ)” value at ERRγ is “i.a”. For the same compound, the “EC50 (ERRα)” value on ERRα was “i.a”.
In the case of `COc1ccc(C2=NNC(c3ccccc3)C2)c(O)c1` (stereo not drawn) [Entry 52, 5-Methoxy-2-(5-phenyl-4,5-dihydro-1H-pyrazol-3-yl)phenol], the pEC50 on ERRγ and on ERRα was above 6.00 throughout.
On to `Cc1cccc(C2=NNC(c3ccccc3O)C2)c1` (stereo not drawn) [Entry 23, 2-(3-(m-Tolyl)-4,5-dihydro-1H-pyrazol-5-yl)phenol], for which the pEC50 was 5.30 to 6.00 at ERRγ and above 6.00 at ERRα.
As to `Oc1cccc(C2CC(c3ccc(Br)cc3)=NN2)c1` (stereo not drawn) [Entry 79, 3-(3-(4-bromophenyl)-4,5-dihydro-1H-pyrazol-5-yl)phenol], the pEC50 at ERRγ and at ERRα was 5.30 to 6.00 in each case.
Turning to `Oc1ccccc1C1CC(c2cccc(OC(F)(F)F)c2)=NN1` (stereo not drawn) [Entry 1, o-[3-(m-Trifluoromethoxy-phenyl)-2-pyrazolin-5-yl]phenol], the “EC50 (ERRγ)” value at ERRγ is recorded as “i.a”. The same compound gave a pEC50 at ERRα below 5.30.
As for `Oc1ccc(C2CC(c3cc(C(F)(F)F)cc(C(F)(F)F)c3)=NN2)cc1` (stereo not drawn) [Entry 9, 4-(3-(3,5-bis(trifluoromethyl)phenyl)-4,5-dihydro-1H-pyrazol-5-yl)phenol], at ERRγ, the “EC50 (ERRγ)” value is “i.a”. Moreover, the “EC50 (ERRα)” value on ERRα is recorded as “i.a”.
